# According to patent publication US10487313B2, “Efficient induction of definitive endoderm from pluripotent stem cells” (Novo Nordisk A/S, priority 2011, dated 2019):
# Legend:
# chIPS4 cells = experiment: Further differentiation of DE towards pancreatic endoderm, PDX1 by ICC and real-time PCR; assay type: cell-based, human; settings: seven days after induction of PE differentiation
# Procedure: When cells were further differentiated to PE, the DE protocol was applied in T75 cell culture flasks and reseeded after 4 d of DE culture at a density of 200 K in DE media. 1 d later, cells were washed once before addition of PE media (RPMI1640+12% KOSR+64 ng/ml bFGF) according to published protocol (Amen et al 2010). RNA samples were collected after 24 h pre-treatment (D1), after 1 day of AA treatment (D2) and after 1-2 d of AA+B27 treatment (D3-4). Total RNA was extracted with the Rneasy Plus Mini kit (Qiagen) and quantitative real-time PCR was performed using the StepOnePLus system (Applied Biosystems). Cells were washed in PBS+/+ and fixed in 4% formaldehyde for 30 min (10% formaline, VWR). The cells were then washed again three times in PBS and left in PBS (4° C.) until staining. Fixed cells were washed with PBS once, then permeabilized with 0.5% Triton X-100 in PBS for 6 min, washed in PBS and blocked with TNB buffer (0.1 M Tris-HCL pH 7.5, 0.15 M NaCl, 0.5% Blocking Reagent (Perkin Elmer)) for 30 min. […] Seven days after the induction of PE differentiation the cells were fixed and analyzed by ICC using a PDX1 specific antibody. […] In parallel, mRNA was collected from the cells and the PDX1 expression was analyzed by real-time PCR. […]
# hES SA121 cells = experiment: OCT4 and SOX17 protein ICC quantification during DE induction, DEF culture system; assay type: cell-based, human; settings: CHIR 3 μM D1 then Activin A D2-3, or D'Amour protocol
# Procedure: Human embryonic stem (hES) cells SA121 and […]) were grown on human fibronectin (Sigma) in DEF culture media (Cellartis) with 30 ng/ml bFGF (Invitrogen) and 10 ng/ml Noggin (Peprotech) in 6-96 well plates. Cells were single cell passaged with Rock inhibitor Y-27632 (Calbiochem) and seeded at a density of 40000 cells/cm2 for experiments. Experiments were initiated 4 d after passage. Confluent cultures were washed once in RPMI1640 (Invitrogen) before 24 hour pre-treatment with 0,5-7μM CHIR99021 (Stemgent) in RPMI. Control cells were left untreated in RPMI and D'Amour cells were either left in RPMI or treated with AA (Peprotech)+Wnt3a (R&D Systems) without pre-treatment depending on experimental setup. After 24 hours, pretreated and control cells were washed once with RPMI before adding 100 ng/ml AA in RPMI. D'Amour cells were also treated with 100 ng/ml AA but with 0,2% FBS instead of B27. 24 h later, 2% B27 (Invitrogen) was added to the AA media for 2-3 d. Control cells were treated with B27 to prevent cell death and D'Amour cells with 2% FBS according to published protocol. Media was changed every day. • Day 1: Cells were washed carefully in prewarmed (37° C.) RPMI before starting the differentiation. Day1 medium was premixed (CHIR 3 μM in prewarmed RPMI+PEST) and gently added to cell culture. Volumes were adjusted according to plate formats. • Day 2: Cells were washed carefully in prewarmed (37° C.) RPMI before media change. Day2 medium was premixed (100 ng/ml Activin A in prewarmed RPMI+0.1% PEST) and gently added to cell culture. • Day 3: Day3&4 mediums were premixed (100 ng/ml Activin A and 2% B27 in prewarmed RPMI+0.1% PEST) and gently added to cell culture. • Day 4: DE was harvested or reseeded for further differentiation. Cells were checked under the microscope every day. Cells were washed in PBS+/+ and fixed in 4% formaldehyde for 30 min (10% formaline, VWR). The cells were then washed again three times in PBS and left in PBS (4° C.) until staining. Fixed cells were washed with PBS once, then permeabilized with 0.5% Triton X-100 in PBS for 6 min, washed in PBS and blocked with TNB buffer (0.1 M Tris-HCL pH 7.5, 0.15 M NaCl, 0.5% Blocking Reagent (Perkin Elmer)) for 30 min. Primary antibodies (goat-anti-SOX17 (AF1924, RnD Systems); goat-anti-Brachyury (AF2085, RnD Systems); mouse-anti-OCT4 (sc5279, SantaCruz Biotechnology); goat-anti-PDX1 (AB47383, Abcam)) were added in 0.1% TritonX-100+PBS for 1 h in RT or 4° C. O/N. After a thorough washing step in PBS, secondary antibodies were added together with DAPI in 0.1% Triton X-100+PBS for 45 min at RT, washed thoroughly in PBS and left in PBS until photodocumentation.
smiles,measurement,setting,value
"Cc1c[nH]c(-c2cnc(NCCNc3ccc(C#N)cn3)nc2-c2ccc(Cl)cc2Cl)n1 [CHIR, CHIR99021]",PDX1 mRNA expression by real-time PCR,chIPS4 cells,clear expression
same,PDX1 staining by ICC,chIPS4 cells,evident
same,OCT4 ICC % positive cells,"hES SA121 cells; SA121, D1",97.7%
same,SOX17 ICC % positive cells,"hES SA121 cells; SA121, D1",0%
same,OCT4 ICC % positive cells,"hES SA121 cells; SA121, D2",2.4%
same,SOX17 ICC % positive cells,"hES SA121 cells; SA121, D2",72.1%
same,OCT4 ICC % positive cells,"hES SA121 cells; SA121, D3",0.2%
same,SOX17 ICC % positive cells,"hES SA121 cells; SA121, D3",93.1%
